Where two headings read alike, the source gives them in different places.

The text below walks through data of patent publication US11993594B2, “IRAK inhibitors and method for making and using” (Rigel Pharmaceuticals, Inc., priority 2016, dated 2024).

For test [1], the system named is LPS induced IL-23 (p19/p40) in DC cells. Description: IL23-p19 ELISA, dendritic (DC) cells differentiated from human PBMC, LPS stimulated. The class given is cell-based. The conditions noted are these: LPS 1 μg/ml, 18 hours, 10 pt. As to the method: Compound Screening Using DC Cells
Human PBMC cells (400 million) obtained from the vendor were transferred into a T-175 flask containing 15 ml RPMI media (10% FBS) and incubate for 2 hours at 37° C. After 2 hours, the media including floating cells was aspirated out carefully and 12 ml of fresh RPMI media (10% FBS) containing GMCSF (100 ng/ml) and IL4 (20 ng/ml) was added, and the flask was kept in a 37° C. incubator for 7 days.
After 3 days, fresh GMCSF (100 ng/ml) and IL4 (20 ng/ml) were added to the flask and the incubation continued. After 7 days, the fully differentiated cells were harvested by spinning down (1200 rpm/5 min) and aspirating the media. The cells were suspended in fresh RPMI media (10% FBS) containing 50 ng/ml IFNγ (1000 U/ml) and then plated (50K/well in 100 μl) onto a white clear bottom 96 well plate and left in a 37° C. incubator for 24 hours.
After 24 hours incubation, 100 μl of RPMI media was added containing 2× concentrated test compound per well to the above cell-culture media (final concentration becomes 1×) and the plates were pre-incubated for 1 hour at 37° C. before stimulating with LPS.
After 1 hour compound pre-incubation, 10 μl per well of 20× concentrated LPS solution in RPMI media was added to give a final concentration of 1 μg/ml. The mixture was shaken and incubated the plates at 37° C. for an additional 18 hours.
155 μl of the supernatant was harvested from each well carefully (without the tip touching the bottom of the well) and to the remaining 50 μl/well of the cell culture plate was added 50 μl of Cell Titer Glo reagent. The mixture was incubated for 1-2 minutes on a shaker and the plate was read for luminescence intensity to determine the compound cytotoxicity. The cell culture supernatant collected above was used to carry out IL23 ELISA (65 μl—Supernatant) and IL10 ELISA (90 μl—Supernatant) as described below.
Human IL-23 (p19/p40) ELISA Protocol (e-Biosciences)
To 10.5 ml PBS add 50 μl of anti-IL23 (p19) was added capture antibody (2.5 μg/ml). The mixture was mixed well and 100 μl of the coating solution was added to each well of the 96 well white plates from Pierce. The wells were covered and incubated overnight at 4° C.
The anti-IL23 (p19)-antibody-coated plates were washed 2× using TBST (use plate washer) and blocked using 200 μl of 0.5% Casein for 1.5 to 2 hours at room temperature with shaking.
The plates were washed 2× using TBST and the supernatant was transferred (65 μl/well) to the above pre-blocked/IL23(p19)-antibody-coated 96 well plate, and incubated at room temperature for 1.5 hours with shaking.
The plates were washed 4× using TBST (plate washer) and 100 μl/well detection antibody solution prepared from 2 μl of biotin labeled anti-IL-12 (p40/p70) antibody in 11 ml 1% BSA/PBS solution (1-5000 dilution) was added. The plates were incubated for 1 hour with shaking at Room temperature.
Again, the plates were washed 4× with TBST and 100 μl of HRP labeled Streptavidin (R&D Systems) solution (10 μl/10 ml 1% BSA solution) was added, and the plates were incubated at room temperature for another 45 minutes with shaking.
After 45 minutes, the plates were washed with TBST 4× and 100 μl/well Super Signal ELISA Pico Chemiluminescent Substrate from Pierce (3.5 ml A+3.5 ml B+3.5 ml MQ water) was added. The plates were shaken for 1-2 minutes then read on a plate reader. […]
On the technique in general: An ELISA detects its analyte on a solid surface through an enzyme-linked reagent.

Test [2] has as its system LPS Induced IL23p19 in THP-1 Cells. Briefly: LPS Induced IL23p19 in THP-1 Cells (with IFNγ Primed) Assay. The class given is cell-based, human. The conditions noted are these: THP-1 cells primed with IFNγ 50 ng/mL, LPS 1 ug/mL, 18 hours, 10 pt, read-out: IL23-p19 ELISA, THP1-IFNγ, LPS, 10 pt EC50. The source says: LPS Induced IL23p19 in THP-1 Cells (with IFNγ Primed) Assay
THP-1 Cells (ATCC, Cat #TIB-202), Dimethyl Sulfoxide (DMSO) (Sigma-Aldrich, Cat #D2650), RPMI 1640 (Cellgro, Cat #10-040-CM), Fetal Bovine Serum (Sigma, Cat #F4135), Albumin From Bovine Serum (BSA) (Sigma-Aldrich, Cat #A7906), LPS (Serotype K-235, Sigma, Product Number L 2143), IFNγ (Peprotech, Cat #300-02) Capture antibody: Human IL-23p19 ELISA (e-Bioscience, Cat. #14-7238-85), Detection antibody: Primary Mouse Biotinylated anti-human IL-12(p40/p70) (e-Bioscience, Cat. #13-7129-85), Secondary HRP-conjugated Streptavidin (R&D Systems, Cat #DY998), 1×PBST Washing Buffer (PBS-Tween tablet) (VWR International, Cat #80058-558), ELISA Blocking Buffer (PBS with 1% BSA), ELISA Dilution Buffer (PBS with 1% BSA), 384 Well Flat-Bottom, MaxiSorp Black Immuno Plates (Thermo Scientific, Cat #12-565-346), 384 Well Flat-Bottom, White Tissue Culture Plates (Thermo Scientific, Cat #12-565-343), Super Signal ELISA Pico Chemiluminescent Substrate (Thermo Scientific, Cat #37070), Cell Titer Glo reagent (Promega, Cat #G7573), Positive control, IKK2VI inhibitor (Calbiochem, Cat #401483), AquaMax 4000 plate washer (Molecular Devices), Luminometer, Wallac Victor2 1420 Multilabel Counter.
On day 1, 50K/well THP-1 cells were seeded and primed with IFNγ (50 ng/mL) in 384-well plates for about 18 hours in RPMI media with 10% FBS. On day 2, the compound was serially diluted in DMSO from 5 mM in 3-fold dilutions, and then diluted 1:125 in RPMI media with 10% FBS. 50 μL/well 2× compound was added to 50 μL/well THP-1 cells (with IFNγ primed) in duplicate in 384 well tissue culture plates. The cells were pre-incubated with compound for 1 hour at 37° C., 5% CO2 before addition of 10 μL/well 11×LPS to give a final concentration of 1 ug/mL LPS. Day 3, after stimulation for 18 hours at 37° C., 5% CO2, the assay plate was centrifuged and 70 μL/well supernatant was harvested. IL-23p19 protein in 70 µL/well of supernatant was measured by sandwich ELISA, and 25 μl/well Cell Titer Glo reagent was added to the remaining cells to measure compound toxicity.
Human IL-23p19 Sandwich ELISA:
Maxisorp immuno ELISA plates were pre-coated with 25 μL/well of anti-IL-23p19 capture antibody (2.5 ug/mL) in PBS overnight at room temperature. After washing with 1×PBST, the plates were blocked using 100 μL/well of 1% BSA in PBS for 2 hours at room temperature. The plates were washed three times with 1×PBST and 70 μL/well supernatant were added. The plates were incubated at room temperature for 2 hours with shaking and washed three times with 1×PBST. 25 μL/well of biotin labeled anti-IL-12(p40/p70) detection antibody (100 ng/mL) in PBS with 1% BSA was added and the plates were incubated at room temperature for 2 hours with shaking. After washing three times with 1×PBST, 25 μL/well of streptavidin-HRP (1:200) in PBS with 1% BSA was added and the plates were incubated at room temperature for 20 minutes with shaking. The plates were washed three times with 1×PBST and 25 μL/well of Super Signal ELISA Pico Chemiluminescent Substrate were added. The plates were read with a luminometer, and the chemiluminescence values were entered into Athena (Rigel) for curve fitting, EC50 calculation, and database storage. […]

Usually EC50 stands for the midpoint of the concentration-response curve. Take `CCO[C@H]1CC[C@H](n2cc(NC(=O)c3coc(-c4cn[nH]c4)n3)c(-c3cnccn3)n2)CC1` [Compound I-1, N-(1-((1r,4r)-4-ethoxycyclohexyl)-3-(pyrazin-2-yl)-1H-pyrazol-4-yl)-2-(1H-pyrazol-4-yl)oxazole-4-carboxamide]: the concentration for a half-maximal effect (EC50) in test [1] (Table 1, IFNγ 50 ng/ml) worked out at 33.4 nM; in test [2] (Homo sapiens, Table 1), 4.8 nM.
As for `O=C(Nc1cn([C@H]2CC[C@H](N3CCOCC3)CC2)nc1-c1ncccn1)c1coc(-c2cn[nH]c2)n1` [Compound I-2, N-(1-((1r,4r)-4-morpholinocyclohexyl)-3-(pyrimidin-2-yl)-1H-pyrazol-4-yl)-2-(1H-pyrazol-4-yl)oxazole-4-carboxamide], the EC50 in test [1] (Table 1, IFNγ 50 ng/ml) came out at 84.2 nM; in test [1] (Table 2, IFNγ 50 ng/ml), 84.2 nM; in test [2] (Table 1) it was 34.3 nM; in test [2] (Table 2), 34.3 nM.
Consider `CCO[C@H]1CC[C@H](n2cc(NC(=O)c3coc(-c4cn[nH]c4)n3)c(-c3ncccn3)n2)CC1` [Compound I-3, N-(1-((1r,4r)-4-ethoxycyclohexyl)-3-(pyrimidin-2-yl)-1H-pyrazol-4-yl)-2-(1H-pyrazol-4-yl)oxazole-4-carboxamide], for which the half-maximal effective concentration (EC50) in test [1] (Table 1, IFNγ 50 ng/ml) came out at 3.3 nM; in test [1] (Table 2, IFNγ 50 ng/ml), 3.3 nM; in test [2] (Table 1) it was 8.9 nM; in test [2] (Table 2), 8.9 nM.
As for `O=C(Nc1cn([C@H]2CC[C@H](N3CCOCC3)CC2)nc1-c1cccc(C(F)F)n1)c1coc(-c2cn[nH]c2)n1` [Compound I-4, N-(3-(6-(difluoromethyl)pyridin-2-yl)-1-((1r,4r)-4-morpholinocyclohexyl)-1H-pyrazol-4-yl)-2-(1H-pyrazol-4-yl)oxazole-4-carboxamide], the EC50 in test [1] (Table 1, IFNγ 50 ng/ml) was 20.1 nM; in test [1] (Table 2, IFNγ 50 ng/ml) it was 20.1 nM; in test [2] (Table 1), 6.3 nM; in test [2] (Table 2), 6.3 nM.
As for `C[C@@H]1CN(C2CCC(n3cc(NC(=O)c4coc(-c5cn[nH]c5)n4)c(-c4cccc(C(F)F)n4)n3)CC2)C[C@H](C)O1` (stereo partly drawn) [Compound I-5, N-(3-(6-(difluoromethyl)pyridin-2-yl)-1-((1R,4r)-4-((2R,6S)-2,6-dimethylmorpholino)cyclohexyl)-1H-pyrazol-4-yl)-2-(1H-pyrazol-4-yl)oxazole-4-carboxamide], the EC50 worked out at 10.2 nM in test [1] (Table 1, IFNγ 50 ng/ml); 10.2 nM in test [1] (Table 2, IFNγ 50 ng/ml); 12 nM in test [2] (Table 1); 12 nM in test [2] (Table 2).
Take `CCO[C@H]1CC[C@H](n2cc(NC(=O)c3coc(-c4cn[nH]c4)n3)c(-c3ccncn3)n2)CC1` [Compound I-6, N-(1-((1r,4r)-4-ethoxycyclohexyl)-3-(pyrimidin-4-yl)-1H-pyrazol-4-yl)-2-(1H-pyrazol-4-yl)oxazole-4-carboxamide]: the EC50 in test [2] (Table 1) and in test [2] (Table 2) was 19.6 nM throughout.
In the case of `O=C(Nc1cn([C@H]2CC[C@H](N3CCOCC3)CC2)nc1-c1nc(C(F)(F)F)ccc1F)c1coc(-c2cn[nH]c2)n1` [Compound I-7, N-(3-(3-fluoro-6-(trifluoromethyl)pyridin-2-yl)-1-((1r,4r)-4-morpholinocyclohexyl)-1H-pyrazol-4-yl)-2-(1H-pyrazol-4-yl)oxazole-4-carboxamide], the EC50 in test [1] (Table 1, IFNγ 50 ng/ml) was determined as 75.7 nM; in test [1] (Table 2, IFNγ 50 ng/ml), 75.7 nM; in test [2] (Table 1) it was 28 nM; in test [2] (Table 2), 28 nM.
On to `CCOC1CCC(n2ncc(NC(=O)c3coc(-c4cn[nH]c4)n3)c2-c2nc(F)ccc2F)CC1` [Compound I-14, N-(5-(3,6-difluoropyridin-2-yl)-1-((1r,4R)-4-ethoxycyclohexyl)-1H-pyrazol-4-yl)-2-(1H-pyrazol-4-yl)oxazole-4-carboxamide], for which the EC50 in test [2] (Table 1) and in test [2] (Table 2) was 9120 nM throughout.
`Cn1cc(NC(=O)c2coc(-c3cnn(CC4CC4)c3)n2)c(-c2ccccn2)n1` [Compound I-19, 2-(1-(cyclopropylmethyl)-1H-pyrazol-4-yl)-N-(1-methyl-3-(pyridin-2-yl)-1H-pyrazol-4-yl)oxazole-4-carboxamide]: the EC50 in test [2] (Table 3) turned out to be 20300 nM.
Turning to `O=C(Nc1cn([C@H]2CC[C@H](N3CCOCC3)CC2)nc1-c1nc(F)ccc1F)c1coc(-c2cn[nH]c2)n1` [Compound I-37, N-(3-(3,6-difluoropyridin-2-yl)-1-((1r,4r)-4-morpholinocyclohexyl)-1H-pyrazol-4-yl)-2-(1H-pyrazol-4-yl)oxazole-4-carboxamide], the EC50 in test [2] (Homo sapiens, Table 1) was found to be 73.3 nM.
